The source of these data is US12319664B2, “Herbicidally active 3-phenylisoxazoline-5-carboxamides of cyclopentenylcarboxylic acid derivatives” (Bayer Aktiengesellschaft, priority 2018, dated 2025).

Assay [1] deals with ECHCG. In words: Pre-emergence herbicidal action against ECHCG. Conditions: application rate 80 g/ha, scored visually after about 3 weeks vs untreated controls (100% = plants have died, 0% = like control plants). Type of assay: in vivo, Echinochloa crus-galli. The procedure, abridged: (§1)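 Pre-emergence soil-surface spray, 600 l/ha water, 0.5% additive; WP or EC formulation. Greenhouse, ~3 wk. Readout: visual % effect vs untreated (0% = control-like, 100% = dead).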

For assay [2], the system named is ALOMY. Nature of the assay: Pre-emergence herbicidal action against ALOMY. It counts as in vivo, Alopecurus myosuroides. The conditions noted are these: application rate 80 g/ha, scored visually after about 3 weeks vs untreated controls (100% = plants have died, 0% = like control plants). The procedure, abridged: as §1
For assay [3], the system named is AVEFA. Nature of the assay: Post-emergence herbicidal action against AVEFA. Type of assay: in vivo, Avena fatua. Conditions: application rate 80 g/ha, rated visually after about 3 weeks. The procedure, abridged: (§2)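 Greenhouse post-emergence test: compound sprayed onto green plant parts at one-leaf stage as WP or EC preparation with 0.5% additive, water rate 600 l/ha. Percent activity scored by eye after roughly 3 weeks, where 0% matches controls and 100% means death.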

For assay [4], the system named is ALOMY. Nature of the assay: Post-emergence herbicidal action against ALOMY. The conditions noted are these: application rate 80 g/ha, rated visually after about 3 weeks. It counts as in vivo, Alopecurus myosuroides. The procedure, abridged:
as §2

The subject of assay [5] is SETVI. Nature of the assay: Pre-emergence herbicidal action against SETVI. It counts as in vivo, Setaria viridis. Conditions: application rate 80 g/ha, scored visually after about 3 weeks vs untreated controls (100% = plants have died, 0% = like control plants). The procedure, abridged: as §1
Assay [6] concerns ECHCG. Nature of the assay: Post-emergence herbicidal action against ECHCG. It counts as in vivo, Echinochloa crus-galli. Conditions: application rate 80 g/ha, rated visually after about 3 weeks. The procedure, abridged:
as §2

For assay [7], the system named is POLCO. In words: Pre-emergence herbicidal action against POLCO. It counts as in vivo, Polygonum convolvulus. The conditions noted are these: application rate 80 g/ha. The procedure, abridged: as §1
Assay [8] deals with LOLRI. In words: Pre-emergence herbicidal action against LOLRI. Type of assay: in vivo, Lolium rigidum. Conditions: application rate 80 g/ha, scored visually after about 3 weeks vs untreated controls (100% = plants have died, 0% = like control plants). The procedure, abridged: as §1
The next assay has as its system MATIN. In words: Pre-emergence herbicidal action against MATIN. Type of assay: in vivo, Matricaria inodora. Conditions: application rate 80 g/ha, scored visually after about 3 weeks vs untreated controls (100% = plants have died, 0% = like control plants). The source says: (§3) 1. Pre-emergence herbicidal action against harmful plants and crop plant compatibility Seeds of monocotyledonous and dicotyledonous weed plants and crop plants are placed in plastic or wood-fibre pots and covered with soil. The compounds of the invention, formulated in the form of wettable powders (WP) or as emulsion concentrates (EC), are then applied onto the surface of the covering soil as aqueous suspension or emulsion with addition of 0.5% additive at a water application rate of 600 l/ha (converted). After the treatment, the pots are placed in a greenhouse and kept under good growth conditions for the trial plants. After about 3 weeks, the effect of the preparations is scored visually in comparison with untreated controls as percentages. For example, 100% activity=the plants have died, 0% activity=like control plants. [table]

For assay [9], the system named is STEME. In words: Post-emergence herbicidal action against STEME. Type of assay: in vivo, Stellaria media. Conditions: application rate 80 g/ha, rated visually about 3 weeks after treatment. The procedure, abridged:
as §2

Assay [10] relates to HORMU. Nature of the assay: Pre-emergence herbicidal action against HORMU. It counts as in vivo, Hordeum murinum. Conditions: application rate 80 g/ha. The procedure, abridged: as §1
The subject of assay [11] is PHBPU. In words: Post-emergence herbicidal action against PHBPU. It counts as in vivo, Pharbitis purpurea. Conditions: application rate 80 g/ha, rated visually about 3 weeks after treatment. The procedure, abridged: as §2
The test system of the next assay is VIOTR. Nature of the assay: Pre-emergence herbicidal action against VIOTR. It counts as in vivo, Viola tricolor. Conditions: application rate 80 g/ha. The procedure, abridged: as §1
Assay [12] concerns HORMU. In words: Post-emergence herbicidal action against HORMU. The conditions noted are these: application rate 80 g/ha. Type of assay: in vivo, Hordeum murinum. The procedure, abridged:
as §2

The test system of assay [13] is LOLRI. In words: Post-emergence herbicidal action against LOLRI. Type of assay: in vivo, Lolium rigidum. The conditions noted are these: application rate 80 g/ha, rated visually after about 3 weeks. The procedure, abridged:
as §2

The subject of the next assay is CYPES. In words: Pre-emergence herbicidal action against CYPES. Conditions: application rate 80 g/ha, scored visually after about 3 weeks vs untreated controls (100% = plants have died, 0% = like control plants). It counts as in vivo.
Excerpt: as §3, with “plants.” for “plants. [table]”

In the next assay the test system is AMARE. In words: Pre-emergence herbicidal action against AMARE. The conditions noted are these: application rate 80 g/ha. It counts as in vivo, Amaranthus retroflexus. The procedure, abridged: as §1
Assay [14] relates to STEME. In words: Pre-emergence herbicidal action against STEME. It counts as in vivo, Stellaria media. The conditions noted are these: application rate 80 g/ha. The procedure, abridged: as §1
Assay [15] has as its system AVEFA. In words: Pre-emergence herbicidal action against AVEFA. It counts as in vivo, Avena fatua. Conditions: application rate 80 g/ha, scored visually after about 3 weeks vs untreated controls (100% = plants have died, 0% = like control plants). The procedure, abridged: as §1
In assay [16] the test system is PHBPU. In words: Pre-emergence herbicidal action against PHBPU. The conditions noted are these: application rate 80 g/ha. Type of assay: in vivo, Pharbitis purpurea. The procedure, abridged: as §1
In assay [17] the test system is POLCO. Nature of the assay: Post-emergence herbicidal action against POLCO. Type of assay: in vivo, Polygonum convolvulus. Conditions: application rate 80 g/ha, rated visually about 3 weeks after treatment. The procedure, abridged: as §2
Assay [18] concerns SETVI. In words: Post-emergence herbicidal action against SETVI. Type of assay: in vivo, Setaria viridis. The conditions noted are these: application rate 80 g/ha, rated visually after about 3 weeks. The procedure, abridged:
as §2

`CCOC(=O)[C@@H]1C=C[C@H](NC(=O)C2(C)CC(c3cccc(F)c3)=NO2)C1` (some centres unmarked) [Example I-006]: the “Herbicidal action against [%] ECHCG” value with ECHCG [1] is recorded as 100%; with ECHCG [6] it was 80%. Moreover, the “Herbicidal action against [%] ALOMY” value in the assay on ALOMY [2] was 100%; in the assay with ALOMY [4] it was 80%. Moreover, the “Herbicidal action against [%] AVEFA” value with AVEFA [3] was determined as 80%; in the assay on AVEFA [15], 90%. For the same compound, the “Herbicidal action against [%] SETVI” value in the assay on SETVI [5] came out at 100%. For the same compound, the “Herbicidal action against [%] POLCO” value with POLCO [7] turned out to be 80%. Moreover, the “Herbicidal action against [%] LOLRI” value came to 100% with LOLRI [8] and 80% in the assay on LOLRI [13]. Moreover, the “Herbicidal action against [%] MATIN” value in the assay with MATIN is 90%. The “Herbicidal action against [%] STEME” value in the assay with STEME [9] turned out to be 80%; in the assay with STEME [14] it was 100%. In addition, the “Herbicidal action against [%] HORMU” value was found to be 90% in the assay with HORMU [10] and 80% in the assay with HORMU [12]. Further, the “Herbicidal action against [%] PHBPU” value is listed as 80% in the assay with PHBPU [11] and 90% in the assay with PHBPU [16]. In addition, the “Herbicidal action against [%] VIOTR” value in the assay on VIOTR was determined as 90%. Moreover, the “Herbicidal action against [%] CYPES” value in the assay on CYPES is 100%. In addition, the “Herbicidal action against [%] AMARE” value in the assay on AMARE turned out to be 100%.
For the compound `COC(=O)[C@H]1C=C[C@@H](NC(=O)C2(C)CC(c3cccc(F)c3)=NO2)C1` (stereo partly drawn) [Example I-003, methyl (1R,4S)-4-[[[3-(3-fluorophenyl)-5-methyl-4H-1,2-oxazol-5-yl]carbonyl]amino]cyclopent-2-ene-1-carboxylate], the “Herbicidal action against [%] POLCO” value in the assay with POLCO [7] and in the assay with POLCO [17] was 80% each time. The “Herbicidal action against [%] VIOTR” value in the assay on VIOTR turned out to be 100%. In the assay with CYPES, the “Herbicidal action against [%] CYPES” value was 100%. Also, the “Herbicidal action against [%] STEME” value in the assay on STEME [14] was determined as 80%.
With `CC1(C(=O)NC2C=CC(C(=O)NS(=O)(=O)C(F)(F)F)C2)CC(c2cccc(F)c2)=NO1` (mixture of isomers) [II-16], in the assay on ECHCG [1], the “Herbicidal action against [%] ECHCG” value is 100%. Besides, the “Herbicidal action against [%] ALOMY” value in the assay with ALOMY [2] was 100%. Moreover, the “Herbicidal action against [%] SETVI” value in the assay on SETVI [5] and with SETVI [18] was 80% each time. Further, the “Herbicidal action against [%] POLCO” value with POLCO [7] is 90%. Also, the entries for the “Herbicidal action against [%] LOLRI” value in the assay with LOLRI [8] and in the assay on LOLRI [13] were 100% and 80%, respectively. In addition, in the assay on MATIN, the “Herbicidal action against [%] MATIN” value stood at 80%. Further, the “Herbicidal action against [%] VIOTR” value in the assay with VIOTR stood at 80%. Further, the “Herbicidal action against [%] CYPES” value in the assay on CYPES stood at 100%. The “Herbicidal action against [%] AMARE” value with AMARE came out at 90%. For the same compound, in the assay with STEME [14], the “Herbicidal action against [%] STEME” value stood at 100%. In addition, the “Herbicidal action against [%] AVEFA” value with AVEFA [15] is 80%.
